Reference: US9751919B2, “Antimicrobial compositions comprising a hyaluronic acid binding peptide and a β-lactam antibiotic” (priority 2012, dated 2017)
Like-named read-outs stand apart in the source and are kept apart here.

What was measured:
Experiment in all cases: MIC (CLSI broth dilution), agent alone
[1] = tested on: E. coli; format: cell-based, Escherichia coli
Procedure: (§1) VISA (strains 92, 95 and 96), VRSA (strains 105 and 106) and E. coli (strain 69717) isolates were also tested. One MSSA was used as a control. All MICs were assessed using CLSI guidelines. Also assessed was the activity of cefazolin, ceftriazone, meropenem, and a piperacillin/tazobactam combination antibiotic. Minimum inhibitory concentration (MIC) is the lowest concentration of an antimicrobial that will inhibit the visible growth of a microorganism after incubation.
(§2) Antimicrobial Susceptibility Testing: A custom designed panel of antimicrobials was created. The panel included: PEP35, penicillin, piperacillin/tazobactam, cefazolin, ceftriaxone, meropenem, clarithromycin, clindamycin, gentamicin, amikacin, vancomycin, ciprofloxacin, levofloxacin, moxifloxacin, linezolid, trimethoprim/sulfamethoxazole and doxycycline. These agents were obtained as laboratory grade powders from their respective manufacturers. Stock solutions were prepared and dilutions made as described by the Clinical Laboratory Standards Institute (2005 CLSI). Following two subcultures from frozen stock the MICs of the antimicrobial agents for the isolates were determined by the CLSI 2005 approved broth macrodilution method. Briefly, test tubes containing doubling antibiotic dilutions (2 ml per tube) of cation adjusted Mueller-Hinton broth (eg. for Enterobacteriaceae) with or without lysed horse blood (2-5% V/V) [eg. for S. pneumoniae] were inoculated to achieve a final concentration of approximately 5×10^5 CFU/ml and incubated in ambient air for 24 hours prior to reading. Colony counts were performed periodically to confirm inocula. Quality control was performed every two weeks using a variety of ATCC QC organisms including; S. aureus 29213, E. faecalis 29212, E. coli 25922 and P. aeruginosa 27853. For all antimicrobials as well as PEP35, CLSI criteria were used.
(§3) One MS SA and ATCC reference strains were used as controls. All MICs were assessed using CLSI guidelines.

[2] = tested on: MSSA; format: cell-based, Staphylococcus aureus; conditions: for MIC: S. aureus control, agent alone
Procedure: as §1
as §2, with “The panel included: PEP35, penicillin, piperacillin/tazobactam, cefazolin, ceftriaxone, meropenem, clarithromycin, clindamycin, gentamicin, amikacin, vancomycin, ciprofloxacin, levofloxacin, moxifloxacin, linezolid, trimethoprim/sulfamethoxazole and doxycycline.” left out, “27853.” for “27853. For all antimicrobials as well as PEP35, CLSI criteria were used.”
(§4) One MSSA was used as a control. All MICs were assessed using CLSI guidelines.
as §3

[3] = tested on: HA-MRSA; format: cell-based, Staphylococcus aureus
Procedure: as §1
as §2, with “The panel included: PEP35, penicillin, piperacillin/tazobactam, cefazolin, ceftriaxone, meropenem, clarithromycin, clindamycin, gentamicin, amikacin, vancomycin, ciprofloxacin, levofloxacin, moxifloxacin, linezolid, trimethoprim/sulfamethoxazole and doxycycline.” left out, “27853.” for “27853. For all antimicrobials as well as PEP35, CLSI criteria were used.”
as §4, §3

[4] = tested on: CA-MRSA; format: cell-based, Staphylococcus aureus; conditions: for MIC: Staphylococcus aureus
Procedure: as §1
as §2, with “The panel included: PEP35, penicillin, piperacillin/tazobactam, cefazolin, ceftriaxone, meropenem, clarithromycin, clindamycin, gentamicin, amikacin, vancomycin, ciprofloxacin, levofloxacin, moxifloxacin, linezolid, trimethoprim/sulfamethoxazole and doxycycline.” left out, “27853.” for “27853. For all antimicrobials as well as PEP35, CLSI criteria were used.”
as §4, §3

## CC1=C(C(=O)O)N2C(=O)[C@@H](NC(=O)[C@H](N)c3ccccc3)[C@H]2SC1 [Cephalexin]
[1]; E. coli, antibiotic alone, two values in cell
  Cephalexin (MIC): 8/8
[1]; Escherichia coli, E. coli control, agent alone, read-out: MIC
  MIC: 8 µg/mL
[2]; S. aureus (control row), antibiotic alone, two values in cell
  Cephalexin (MIC): 4/4
[2]
  MIC: 8 µg/mL
[2]; Staphylococcus aureus, MSSA, read-out: MIC
  MIC: 4 µg/mL
[3]; 50 HA-MRSA strains
  MICs alone, range: 128 to 512 µg/mL
  strains resistant to the antibiotic: 50 of the 50 strains
[3]; Staphylococcus aureus, MRSA / USA200, read-out: Cephalexin (MIC), HA-MRSA (CMRSA4/USA200), antibiotic alone
  MIC: 512 µg/mL
[4]; 50 CA-MRSA strains
  MICs alone, range: 64 to 512 µg/mL
  strains resistant to the antibiotic: 50 of the 50 strains
[4]; MRSA / USA300
  MIC: 128 µg/mL
[4]; MRSA / USA400
  MIC: 128 µg/mL
[4]; MRSA / USA400, CA-MRSA (CMRSA7/USA400/MW2) isolates, one per table line, agent alone, read-out: MIC
  MIC: 512 µg/mL
